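Protocol summary: plate cells (96-well), add compound at 5 concentrations, incubate 48 h, interpolate endpoints linearly. GI50 = concentration required for 50% inhibition of growth. TGI is the concentration that stops growth completely.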
How the values were obtained:
Test in all cases: inhibition of tumour cell growth, NCI panel, 48 h; in the data active means GI50 below about 0.43 µM; inactive means the rest
[1] = system: ACHN renal
[2] = system: MDA-MB-435
[3] = system: SK-MEL-28 melanoma
[4] = system: HCT-15 colon
[5] = system: HT29 colon
[6] = system: K-562 leukemia
[7] = system: NCI-H226 lung
[8] = system: HOP-92 NSCLC
[9] = system: SN12C renal
[10] = system: MDA-N
[11] = system: SF-539 CNS
[12] = system: M14 melanoma
[13] = system: NCI-H460 lung
[14] = system: OVCAR-8 ovarian
[15] = system: BT-549 breast
[16] = system: HCT-116 colon
[17] = system: MCF7 breast
[18] = system: T-47D breast
[19] = system: RPMI-8226 leukemia
[20] = system: A498 renal
[21] = system: 786-0 renal
[22] = system: NCI-H23 lung
[23] = system: A549 NSCLC
[24] = system: DU-145 prostate
[25] = system: UACC-257 melanoma
[26] = system: SNB-75 CNS
[27] = system: OVCAR-3 ovarian
[28] = system: COLO 205 colon
[29] = system: HOP-62 NSCLC
[30] = system: SW-620 colon
[31] = system: SK-OV-3 ovarian
[32] = system: LOX IMVI melanoma
[33] = system: NCI/ADR-RES ovarian
[34] = system: SF-295 CNS
[35] = system: IGROV1 ovarian
[36] = system: EKVX NSCLC
[37] = system: CCRF-CEM leukemia
[38] = system: UACC-62 melanoma
[39] = system: UO-31 renal
[40] = system: SNB-19 CNS
[41] = system: CAKI-1 renal
[42] = system: SR leukemia
[43] = system: HCC-2998 colon
[44] = system: PC-3 prostate
[45] = system: U251 CNS
[46] = system: SK-MEL-2 melanoma
[47] = system: MOLT-4 leukemia
[48] = system: KM12 colon
[49] = system: OVCAR-5 ovarian
[50] = system: SK-MEL-5 melanoma
[51] = system: MDA-MB-231 breast
[52] = system: HL-60(TB) leukemia
[53] = system: SF-268 CNS
[54] = system: OVCAR-4 ovarian
[55] = system: RXF 393 renal
[56] = system: NCI-H522 lung
[57] = system: HS 578T breast
[58] = system: MALME-3M melanoma
[59] = system: TK-10 renal

CN1CCN(/C(N)=C(\C#N)C(=O)Nc2ccc(Cl)cc2)CC1
95.3 µM: TGI [42]
58.9 µM: TGI [38]
35.2 µM: TGI [28]
> 100 µM: TGI [1] | TGI [2] | TGI [3] | TGI [4] | TGI [5] | TGI [6] | TGI [7] | TGI [8] | TGI [9] | TGI [10] | TGI [11] | TGI [12] | TGI [13] | TGI [14] | TGI [15] | TGI [16] | TGI [17] | TGI [18] | TGI [19] | TGI [20] | TGI [21] | TGI [22] | TGI [23] | TGI [24] | TGI [25] | TGI [26] | TGI [27] | TGI [29] | TGI [30] | TGI [31] | TGI [32] | TGI [33] | TGI [34] | TGI [35] | TGI [36] | TGI [37] | TGI [39] | TGI [40] | TGI [41] | TGI [43] | TGI [44] | TGI [45] | TGI [46] | TGI [47] | TGI [48] | TGI [49] | TGI [50]

c1ccc2c(c1)Nc1cccc3c1c-2nc1ccccc13
2.01 µM: TGI [1]
3.48 µM: TGI [19]
> 100 µM: TGI [7] | TGI [15] | TGI [20] | TGI [40]
2.92 µM: TGI [6]
2.83 µM: TGI [39]
2.43 µM: TGI [44]
4.81 µM: TGI [37]
2.69 µM: TGI [51]
2.05 µM: TGI [10]
5.09 µM: TGI [18]
3.3 µM: TGI [52]
4.83 µM: TGI [42]
1.78 µM: TGI [47]
3.44 µM: TGI [48]
2.79 µM: TGI [9]
1.79 µM: TGI [16]
2.6 µM: TGI [24]

COc1ccc(-c2ccc(NNC(=O)c3ccc(F)cc3)nn2)cc1OC
inactive: GI50 [53] 79.8 µM | GI50 [51] 93 µM | GI50 [1] > 100 µM | GI50 [2] > 100 µM | GI50 [3] > 100 µM | GI50 [52] 33.5 µM | GI50 [4] 65.5 µM | GI50 [5] > 100 µM | GI50 [6] 58.7 µM | GI50 [7] 71.8 µM | GI50 [8] 17.8 µM | GI50 [9] > 100 µM | GI50 [11] > 100 µM | GI50 [12] > 100 µM | GI50 [54] 55.3 µM | GI50 [55] 63 µM | GI50 [13] > 100 µM | GI50 [56] 54.3 µM | GI50 [15] 22.9 µM | GI50 [16] > 100 µM | GI50 [57] 63.9 µM | GI50 [17] 93.4 µM | GI50 [18] 28.1 µM | GI50 [19] 35.3 µM | GI50 [20] > 100 µM | GI50 [21] > 100 µM | GI50 [22] > 100 µM | GI50 [23] 99.5 µM | GI50 [24] > 100 µM | GI50 [25] > 100 µM | GI50 [26] 26.9 µM | GI50 [58] > 100 µM | GI50 [27] 79.7 µM | GI50 [28] > 100 µM | GI50 [29] 91.7 µM | GI50 [30] > 100 µM | GI50 [59] > 100 µM | GI50 [31] > 100 µM | GI50 [32] 67.6 µM | GI50 [33] 43.2 µM | GI50 [34] > 100 µM | GI50 [35] 63.3 µM | GI50 [36] > 100 µM | GI50 [37] 38 µM | GI50 [38] > 100 µM | GI50 [39] 31.7 µM | GI50 [40] > 100 µM | GI50 [41] 34.3 µM | GI50 [42] > 100 µM | GI50 [43] > 100 µM | GI50 [44] 50.5 µM | GI50 [45] > 100 µM | GI50 [47] 40.6 µM | GI50 [48] > 100 µM | GI50 [49] > 100 µM | GI50 [50] 45 µM
99.3 µM: TGI [8]
> 100 µM: TGI [53] | TGI [51] | TGI [1] | TGI [2] | TGI [3] | TGI [52] | TGI [4] | TGI [5] | TGI [6] | TGI [7] | TGI [9] | TGI [11] | TGI [12] | TGI [54] | TGI [55] | TGI [13] | TGI [56] | TGI [15] | TGI [16] | TGI [57] | TGI [17] | TGI [18] | TGI [19] | TGI [20] | TGI [21] | TGI [22] | TGI [23] | TGI [24] | TGI [25] | TGI [26] | TGI [58] | TGI [27] | TGI [28] | TGI [29] | TGI [30] | TGI [59] | TGI [31] | TGI [32] | TGI [33] | TGI [34] | TGI [35] | TGI [36] | TGI [37] | TGI [38] | TGI [39] | TGI [40] | TGI [41] | TGI [42] | TGI [43] | TGI [44] | TGI [45] | TGI [47] | TGI [48] | TGI [49] | TGI [50]

From PubChem BioAssay (NCI)
